In ChEMBL document CHEMBL5532758, “Deuterium labeling improves the therapeutic index of 3,3'-diselenodipropionic acid as an anticancer agent: insights from redox reactions” (RSC Med Chem, 2024):
The source made the active and inactive calls. The rule behind the calls is not given here.

Tests used:
[1] = Upregulation of TrxR1 mRNA expression in human WI-38 cells at 10 uM incubated for 24 hrs by real-time PCR analysis relative to control; assay type: functional
[2] = Therapeutic index, ratio of IC50 for cytotoxicity against human MCF-10A cells to IC50 for antiproliferative activity against human A549 cells by MTT assay; assay type: toxicity, cell-based; details: MCF-10A cells versus A549 cells, read-out: Ratio IC50
[3] = Therapeutic index, ratio of IC50 for cytotoxicity against human Intestine 407 cells to IC50 for antiproliferative activity against human NCI-H3122 cells by MTT assay; assay type: toxicity, cell-based; details: Intestine 407 cells versus NCI-H3122 cells, read-out: Ratio IC50
[4] = Cytotoxicity against human Intestine 407 cells assessed as inhibition of cell proliferation incubated for 48 hrs by MTT assay; assay type: toxicity, cell-based
[5] = Drug reactivity with H2O2 assessed as rate constant by absorbance based analysis; assay type: physicochemical
[6] = Therapeutic index, ratio of IC50 for cytotoxicity against human MCF-10A cells to IC50 for antiproliferative activity against human NCI-H3122 cells by MTT assay; assay type: toxicity, cell-based; details: MCF-10A cells versus NCI-H3122 cells, read-out: Ratio IC50
NCI-H3122 = assay: Antiproliferative activity against human NCI-H3122 cells assessed as inhibition of cell proliferation incubated for 48 hrs by MTT assay; assay type: functional, cell-based; details: NCI-H3122, 48 h
A549 [7] = assay: Antiproliferative activity against human A549 cells assessed as inhibition of cell proliferation incubated for 48 hrs by MTT assay; assay type: functional, cell-based; details: A549, 48 h
GST = assay: Reduction in intracellular activity of GST in human WI-38 cells at 150 uM incubated for 24 hrs relative to control; assay type: toxicity, cell-based
WI-38 [8] = assay: Upregulation of GPx1 mRNA expression in human WI-38 cells at 10 uM incubated for 6 hrs by real-time PCR analysis; assay type: functional, cell-based
NCI-H1975 = assay: Antiproliferative activity against human NCI-H1975 cells assessed as inhibition of cell proliferation incubated for 48 hrs by MTT assay; assay type: functional, cell-based; details: NCI-H1975, 48 h
[9] = Therapeutic index, ratio of IC50 for cytotoxicity against human WI-38 cells to IC50 for antiproliferative activity against human NCI-H1975 cells by MTT assay; assay type: toxicity, cell-based; details: WI-38 cells versus NCI-H1975 cells, read-out: Ratio IC50
[10] = Cytotoxicity against human WI-38 cells assessed as inhibition of cell proliferation incubated for 48 hrs by MTT assay; assay type: toxicity, cell-based
[11] = Upregulation of GPx1 mRNA expression in human WI-38 cells at 10 uM incubated for 24 hrs by real-time PCR analysis relative to control; assay type: functional
[12] = Therapeutic index, ratio of IC50 for cytotoxicity against human Intestine 407 cells to IC50 for antiproliferative activity against human A549 cells by MTT assay; assay type: toxicity, cell-based; details: Intestine 407 cells versus A549 cells, read-out: Ratio IC50
[13] = Therapeutic index, ratio of IC50 for cytotoxicity against human WI-38 cells to IC50 for antiproliferative activity against human A549 cells by MTT assay; assay type: toxicity, cell-based; details: WI-38 cells versus A549 cells, read-out: Ratio IC50
WI-38 [14] = assay: Cytotoxicity against human WI-38 cells assessed as reduction in size and number of surviving clones incubated for 7 days by crystal violet staining method; assay type: toxicity, cell-based
[15] = Drug reactivity with trichloromethyl peroxyl radical (CCl3O2.) assessed as rate constant by ABTS2- based competition assay; assay type: physicochemical
[16] = Therapeutic index, ratio of IC50 for cytotoxicity against human MCF10A cells to IC50 for antiproliferative activity against human NCI-H1975 cells by MTT assay; assay type: toxicity, cell-based; details: MCF10A cells versus NCI-H1975 cells, read-out: Ratio IC50
[17] = Drug reactivity with Hypochlorous acid (HOCl) assessed as rate constant by CBA based competition assay; assay type: physicochemical
GR = assay: Reduction in intracellular activity of GR in human WI-38 cells at 150 uM incubated for 24 hrs relative to control; assay type: toxicity, cell-based
[18] = Therapeutic index, ratio of IC50 for cytotoxicity against human WI-26 AV4 cells to IC50 for antiproliferative activity against human A549 cells by MTT assay; assay type: toxicity, cell-based; details: WI-26 AV4 cells versus A549 cells, read-out: Ratio IC50
WI-38 [19] = assay: Radioprotective activity against human WI-38 cells assessed as inhibition of radiation-induced cytotoxicity by measuring dose modification factor at 0.5 uM incubated for 24 hrs followed by irradiation with gamma radiation at 2 to 12 Gy by clonogenic assay relative to control; assay type: functional
[20] = Therapeutic index, ratio of IC50 for cytotoxicity against human WI-26 AV4 cells to IC50 for antiproliferative activity against human NCI-H1975 cells by MTT assay; assay type: toxicity, cell-based; details: WI-26 AV4 cells versus NCI-H1975 cells, read-out: Ratio IC50
[21] = Cytotoxicity against human WI-26 AV4 cells assessed as inhibition of cell proliferation incubated for 48 hrs by MTT assay; assay type: toxicity, cell-based
[22] = Therapeutic index, ratio of IC50 for cytotoxicity against human Intestine 407 cells to IC50 for antiproliferative activity against human NCI-H1975 cells by MTT assay; assay type: toxicity, cell-based; details: Intestine 407 cells versus NCI-H1975 cells, read-out: Ratio IC50
[23] = Increase in TxrR activity in human WI-38 cells at 10 uM incubated for 24 hrs relative to control; assay type: functional
[24] = Therapeutic index, ratio of IC50 for cytotoxicity against human WI-26 AV4 cells to IC50 for antiproliferative activity against human NCI-H3122 cells by MTT assay; assay type: toxicity, cell-based; details: WI-26 AV4 cells versus NCI-H3122 cells, read-out: Ratio IC50
[25] = Upregulation of TrxR1 mRNA expression in human WI-38 cells at 10 uM incubated for 6 hrs by real-time PCR analysis relative to control; assay type: functional
[26] = Drug reduction in DMSO-d6 in presence of 1 equiv. NAC by 77Se NMR spectroscopy; assay type: physicochemical
A549 [27] = assay: Anti-clonogenic activity against human A549 cells assessed as reduction in size and number of surviving clones incubated for 7 days by crystal violet staining method; assay type: functional, cell-based; details: A549, 168 h
[28] = Increase in GPx activity in human WI-38 cells at 10 uM incubated for 24 hrs relative to control; assay type: functional
[29] = Cytotoxicity against human MCF-10A cells assessed as inhibition of cell proliferation incubated for 48 hrs by MTT assay; assay type: toxicity, cell-based
WI-38 [30] = assay: Radioprotective activity against human WI-38 cells assessed as recovery of radiation-induced decrease in TrxR activity at 10 uM pretreated for 24 hrs followed by irradiation with gamma radiation for 24 hrs; assay type: functional, cell-based; details: time 48.0 hrs
A549 [31] = assay: Radiosensitization activity against human A549 cells assessed as potentiation of radiation-induced cytotoxicity by measuring dose modification factor at 0.5 uM pre-irradiated with gamma radiation at 4.5 Gy followed by incubation with drug and measured after 7 days by clonogenic assay relative to control; assay type: functional; details: time 7 day
WI-38 [32] = assay: Radioprotective activity against human WI-38 cells assessed as recovery of radiation-induced decrease in GPx activity at 10 uM pretreated for 24 hrs followed by irradiation with gamma radiation for 24 hrs; assay type: functional, cell-based; details: time 48.0 hrs
[33] = Therapeutic index, ratio of IC50 for cytotoxicity against human WI-38 cells to IC50 for antiproliferative activity against human NCI-H3122 cells by MTT assay; assay type: toxicity, cell-based; details: WI-38 cells versus NCI-H3122 cells, read-out: Ratio IC50
A549 [34] = assay: Radiosensitization activity against human A549 cells assessed as potentiation of radiation-induced cytotoxicity by measuring dose modification factor at 0.5 uM pre-irradiated with gamma radiation at 4 Gy followed by incubation with drug and measured after 7 days by clonogenic assay relative to control; assay type: functional; details: time 7 day

Structure (SMILES)	fold change (FC) [1]	selectivity ratio [2]	selectivity ratio [3]	IC50 at 48 h [4] [µM]	K [5]	selectivity ratio [6]	IC50 (NCI-H3122) [µM]	IC50 (A549 [7]) [µM]	inhibition at 24 h, 150 µM (GST) [%]	IC50 (NCI-H1975) [µM]	selectivity ratio [9]	IC50 at 48 h [10] [µM]	fold change (FC) [11]	selectivity ratio [12]	selectivity ratio [13]	IC50 (WI-38 [14]) [µM]	K [15]	selectivity ratio [16]	K [17]	inhibition at 24 h, 150 µM (GR) [%]	other results
O=C(O)CC[Se][Se]CCC(=O)O	~6.06	4	3.2	483	5.2 10^-2/M/s	2.8	21.5	15.2	24	10.6	16.1	171	~1.73	31.7	11.2	17.9	1 10^8/M/s	5.7	1.6 10^5/M/s	32	Activity (WI-38 [8]): inactive; Activity (WI-38 [8]; tested as the 2H-labelled form): inactive; selectivity ratio [18]: 9.9; Ratio (WI-38 [19]): 1.12; selectivity ratio [20]: 14.2; IC50 at 48 h [21]: 151 µM; selectivity ratio [22]: 32.5; fold change (FC) [23]: ~2; selectivity ratio [24]: 7; fold change (FC) [25]: ~4.02; Drug metabolism [26]: Metabolite_Notdetected; IC50 (A549 [27]): 1.2 µM; fold change (FC) [28]: ~1.34; IC50 at 48 h [29]: 61.2 µM; Activity (WI-38 [30]): Active; Activity (WI-38 [30]; tested as the 2H-labelled form): Active; Ratio (A549 [31]): 0.87; Activity (WI-38 [32]): Active; Activity (WI-38 [32]; tested as the 2H-labelled form): Active; selectivity ratio [33]: 7.9
[2H]C([2H])([Se][Se]C([2H])([2H])C([2H])([2H])C(=O)O)C([2H])([2H])C(=O)O	~5.17	9.8	10.8	507	3.3 10^-2/M/s	22.4	46.5	15.2	8	4.6	217	1000	~1.69	33.3	65.7	35.5	0.8 10^8/M/s	45.5	9.5 10^4/M/s	13	Ratio (A549 [34]): 0.83; selectivity ratio [18]: 36.2; Ratio (WI-38 [19]): 1.16; selectivity ratio [20]: 120; IC50 at 48 h [21]: 550 µM; selectivity ratio [22]: 110; fold change (FC) [23]: ~1.71; selectivity ratio [24]: 11.8; fold change (FC) [25]: ~2.04; IC50 (A549 [27]): 0.9 µM; fold change (FC) [28]: ~1.53; IC50 at 48 h [29]: 150 µM; selectivity ratio [33]: 21.5
